# Test system: P. falciparum K1 (strain resistant to chloroquine and pyrimethamine), erythrocytic stages
# Assay: Plasmodium falciparum in vitro assay, [3H] hypoxanthine incorporation
# Type: cell-based
# Settings: Plasmodium falciparum, K1, P. falciparum strain K1; [3H] hypoxanthine incorporation; read-out: IC50 (nM) on K1
# How it was run: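 Chloroquine/pyrimethamine-resistant K1 erythrocytic cultures (2.5% haematocrit, 0.3% parasitaemia, hypoxanthine-free RPMI with Albumax) exposed to seven doubling dilutions at 37 °C under low O2.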
row,SMILES,IC50 [nM]
1,COCCN(C)C(=O)C(Cc1cnn(C)c1)N(Cc1ccc(-c2ccccn2)cc1)C(=O)C=Cc1ccc(C(F)(F)F)cc1 (racemic) [Example 164],247
2,CN(C)C1CCN(C(=O)C(Cc2cnn(C)c2)N(Cc2ccc(-c3ccccn3)cc2)C(=O)C=Cc2ccc(C(F)(F)F)cc2)CC1 (racemic) [Example 137],413
3,"COCCN(C)C(=O)[C@H](Cc1ccccc1)N(Cc1ccc(-c2ccccn2)cc1)C(=O)C=Cc1cnn(C)c1C [Example 90, (S)-3-(1,5-Dimethyl-1H-pyrazol-4-yl)-N-{1-[(2-methoxy-ethyl)-methyl-carbamoyl]-2-phenyl-ethyl}-N-(4-pyridin-2-yl-benzyl)-acrylamide]",43
4,"COCCN(C)C(=O)[C@H](Cc1ccccc1)N(Cc1ccc(-c2ccncc2)cc1)C(=O)C=Cc1sc(C)nc1C [Example 93, (S)-3-(2,4-Dimethyl-thiazol-5-yl)-N-{1-[(2-methoxy-ethyl)-methyl-carbamoyl]-2-phenyl-ethyl}-N-(4-pyridin-4-yl-benzyl)-acrylamide]",13
5,"CN(C(=O)[C@H](Cc1ccccc1)N(Cc1ccc(-c2ccccn2)cc1)C(=O)C=Cc1ccc(C(F)(F)F)cc1)[C@@H]1CCN(Cc2ccccc2)C1 [Example 173, N-{1-[((R)-1-Benzyl-pyrrolidin-3-yl)-methyl-carbamoyl]-(S)-2-phenyl-ethyl}-N-(4-pyridin-2-yl-benzyl)-3-(4-trifluoromethyl-phenyl)-acrylamide]",52
6,"Cc1nn(C)c(C)c1C=CC(=O)N(Cc1ccc(-c2cncnc2)cc1)[C@@H](Cc1ccccc1)C(=O)N1CCC(N(C)C)CC1 [Example 36, (S)-N-[1-Benzyl-2-(4-dimethylamino-piperidin-1-yl)-2-oxo-ethyl]-N-(4-pyrimidin-5-yl-benzyl)-3-(1,3,5-trimethyl-1H-pyrazol-4-yl)-acrylamide]",173
7,"COCCN(C)C(=O)[C@H](Cc1ccccc1)N(Cc1ccc(-c2cncnc2)cc1)C(=O)C=Cc1cnc(C)n1C [Example 120, (S)-3-(2,3-Dimethyl-3H-imidazol-4-yl)-N-{1-[(2-methoxy-ethyl)-methyl-carbamoyl]-2-phenyl-ethyl}-N-(4-pyrimidin-5-yl-benzyl)-acrylamide]",285
8,"Cc1nc(C)c(C=CC(=O)N(Cc2ccc(N3CCOCC3)cc2)[C@@H](Cc2ccccc2)C(=O)N2CCC(N(C)C)CC2)s1 [Example 2, (S)-N-[1-Benzyl-2-(4-dimethylamino-piperidin-1-yl)-2-oxo-ethyl]-3-(2,4-dimethyl-thiazol-5-yl)-N-(4-morpholin-4-yl-benzyl)-acrylamide]",466
9,"CN(C)C1CCN(C(=O)[C@H](Cc2ccccc2)N(Cc2ccc(-c3ccccn3)cc2)C(=O)C=Cc2ccc(C(F)(F)F)nc2)CC1 [Example 7, (S)-N-[1-Benzyl-2-(4-dimethylamino-piperidin-1-yl)-2-oxo-ethyl]-N-(4-pyridin-2-yl-benzyl)-3-(6-trifluoromethyl-pyridin-3-yl)-acrylamide]",14
10,"COCCN(C)C(=O)[C@H](Cc1ccccc1)N(Cc1ccc(-c2cccnc2)cc1)C(=O)C=Cc1cnc(C)n1C [Example 131, (S)-3-(2,3-Dimethyl-3H-imidazol-4-yl)-N-{1-[(2-methoxy-ethyl)-methyl-carbamoyl]-2-phenyl-ethyl}-N-(4-pyridin-3-yl-benzyl)-acrylamide]",282
11,"Cc1cc(C=CC(=O)N(Cc2ccc(-c3ccccn3)cc2)[C@@H](Cc2ccccc2)C(=O)N2CCC(N(C)C)CC2)n(C)n1 [Example 8, (S)-N-[1-Benzyl-2-(4-dimethylamino-piperidin-1-yl)-2-oxo-ethyl]-3-(2,5-dimethyl-2H-pyrazol-3-yl)-N-(4-pyridin-2-yl-benzyl)-acrylamide]",381
12,"Cc1noc(C)c1C=CC(=O)N(Cc1ccc(-c2ccccn2)cc1)[C@@H](Cc1ccccc1)C(=O)N1CCC(N(C)C)CC1 [Example 12, (S)-N-[1-Benzyl-2-(4-dimethylamino-piperidin-1-yl)-2-oxo-ethyl]-3-(3,5-dimethyl-isoxazol-4-yl)-N-(4-pyridin-2-yl-benzyl)-acrylamide]",220
13,"COCCN(C)C(=O)[C@H](Cc1ccccc1)N(Cc1ccc(N2CCN(C(C)=O)CC2)cc1)C(=O)C=Cc1cc(C)nn1C [Example 104, (S)-N-[4-(4-Acetyl-piperazin-1-yl)-benzyl]-3-(2,5-dimethyl-2H-pyrazol-3-yl)-N-{1-[(2-methoxy-ethyl)-methyl-carbamoyl]-2-phenyl-ethyl}-acrylamide]",45
14,"COCCN(C)C(=O)[C@H](Cc1ccccc1)N(Cc1ccc(N2CCN(C(C)=O)CC2)cc1)C(=O)C=Cc1ccc(OC)nc1 [Example 115, (S)-N-[4-(4-Acetyl-piperazin-1-yl)-benzyl]-N-{1-[(2-methoxy-ethyl)-methyl-carbamoyl]-2-phenyl-ethyl}-3-(6-methoxy-pyridin-3-yl)-acrylamide]",32
15,"COCCN(C)C(=O)[C@H](Cc1ccccc1)N(Cc1ccc(N2CCOCC2)cc1)C(=O)C=Cc1cnc(C)n1C [Example 61, (S)-3-(2,3-Dimethyl-3H-imidazol-4-yl)-N-{1-[(2-methoxy-ethyl)-methyl-carbamoyl]-2-phenyl-ethyl}-N-(4-morpholin-4-yl-benzyl)-acrylamide]",464
16,CC(=O)Nc1ccc(CN(C)C(=O)[C@H](Cc2ccccc2)N(Cc2ccc(N3CCOCC3)cc2)C(=O)C=Cc2ccc(C(F)(F)F)nc2)cc1 [Example 271],100
17,"COCCN(C)C(=O)[C@H](Cc1ccccc1)N(Cc1ccc(-c2cncnc2)cc1)C(=O)C=Cc1sc(C)nc1C [Example 121, (S)-3-(2,4-Dimethyl-thiazol-5-yl)-N-{1-[(2-methoxy-ethyl)-methyl-carbamoyl]-2-phenyl-ethyl}-N-(4-pyrimidin-5-yl-benzyl)-acrylamide]",28
18,"CC(=O)N1CCN(c2ccc(CN(C(=O)C=Cc3ccc(C(F)(F)F)cc3)[C@@H](Cc3ccccc3)C(=O)N(C)CCN(C)Cc3cncnc3)cc2)CC1 [Example 250, (S)-N-[4-(4-Acetyl-piperazin-1-yl)-benzyl]-N-(1-{methyl-[2-(methyl-pyrimidin-5-ylmethyl-amino)-ethyl]-carbamoyl}-2-phenyl-ethyl)-3-(4-trifluoromethyl-phenyl)-acrylamide]",27
19,"Cc1nc(C)c(C=CC(=O)N(Cc2ccc(-c3ccncc3)cc2)[C@@H](Cc2ccccc2)C(=O)N2CCC(N(C)C)CC2)s1 [Example 22, (S)-N-[1-Benzyl-2-(4-dimethylamino-piperidin-1-yl)-2-oxo-ethyl]-3-(2,4-dimethyl-thiazol-5-yl)-N-(4-pyridin-4-yl-benzyl)-acrylamide]",60
20,"CN(CCN(C)C(=O)[C@H](Cc1ccccc1)N(Cc1ccc(N2CCOCC2)cc1)C(=O)C=Cc1ccc(C(F)(F)F)cc1)Cc1cccc(C#N)c1 [Example 261, (S)-N-[1-({2-[(3-Cyano-benzyl)-methyl-amino]-ethyl}-methyl-carbamoyl)-2-phenyl-ethyl]-N-(4-morpholin-4-yl-benzyl)-3-(4-trifluoromethyl-phenyl)-acrylamide]",48
21,"COCCN(C)C(=O)[C@H](Cc1ccccc1)N(Cc1ccc(-c2cncnc2)cc1)C(=O)C=Cc1cc(C)on1 [Example 123, (S)-N-{1-[(2-Methoxy-ethyl)-methyl-carbamoyl]-2-phenyl-ethyl}-3-(5-methyl-isoxazol-3-yl)-N-(4-pyrimidin-5-yl-benzyl)-acrylamide]",296

# Reference: patent publication US20110224210A1, “NOVEL BIS-AMIDES AS ANTI-MALARIAL AGENTS” (priority 2008, published 2011)
